Data as given in article PMC10527014 (Antiviral research, 2023).

Test system: RD
Experiment: Cytotoxicity
Type: cell-based, human
Conditions: read-out: 50% Cytotoxic concentration CC50, line of ma-EV-D68

For `Cc1cc(-c2noc(C(F)(F)F)n2)ccc1OCCCc1cc(C(=O)N(C)C)no1` [compound 11526092, 3-(3-methyl-4-(3-(3-N,N-dimethylcarbamoyl-isoxazol-5-yl)propoxy)phenyl)-5-trifluoromethyl-1,2,4-oxadiazole], the CC50 was 9.4 µM.
